# Experiments:
# [1] = system: giant foxtail; test: Test B pre-/postemergence herbicide test; type: in vivo, Setaria faberi
# Summary of the method: (§1)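 Seeds were planted and treated preemergence with compounds formulated in a non-phytotoxic solvent mixture containing surfactant, while plants at the 1- to 4-leaf stage (2 to 18 cm) received postemergence sprays. Flooded paddy plants were grown to the 2-leaf stage. After 13 to 15 days in a greenhouse, injury was visually rated 0–100 against untreated controls.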
# [2] = system: Surinam grass; test: Test B pre-/postemergence herbicide test; type: in vivo, Urochloa decumbens
# Summary of the method: as §1
# [3] = system: wild oat; test: Test B postemergence herbicide test; type: in vivo, Avena fatua
# Summary of the method: (§2)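 After treating 2-leaf paddy plants or 2–18 cm postemergence plants (1 to 4 leaves) with formulated chemical, researchers kept them in a greenhouse for 13–15 days. Effects were judged visually versus controls: 0 indicates none, 100 total control.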
# [4] = system: pigweed; test: Test B pre-/postemergence herbicide test; type: in vivo, Amaranthus retroflexus
# Summary of the method: as §1
# [5] = system: lambsquarters; test: Test B pre-/postemergence herbicide test; type: in vivo, Chenopodium album
# Summary of the method: as §1
# [6] = system: small flower umbrella sedge; test: Test B flooded paddy test; type: in vivo, Cyperus difformis; settings: 1000 g ai/ha, scale 0 to 100 (0 no effect, 100 complete control)
# Summary of the method: (§3)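 Plants grow to 1- to 4-leaf stage (2–18 cm) for postemergence spraying, or to 2-leaf stage for the paddy test. Formulated compound is applied. Greenhouse holding lasts 13–15 days. Response is scored visually relative to controls, 0 no effect to 100 complete control; a dash means no result.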
# [7] = system: barnyardgrass; test: Test B pre-/postemergence herbicide test; type: in vivo, Echinochloa crus-galli
# Summary of the method: (§4)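 Species tested were Echinochloa crus-galli, Ipomoea coccinea, Xanthium strumarium and Oryza sativa, treated both before emergence and at the 1- to 4-leaf stage; rice and barnyardgrass were also tested under flooding at 2 leaves. Greenhouse incubation lasted 13–15 days before visual 0–100 scoring.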
# [8] = system: morningglory; test: Test B pre-/postemergence herbicide test; type: in vivo, Ipomoea coccinea
# Summary of the method: as §4
# [9] = system: velvetleaf; test: Test B pre-/postemergence herbicide test; type: in vivo, Abutilon theophrasti
# Summary of the method: as §1
# [10] = system: rice; test: Test B flooded paddy test; type: in vivo, Oryza sativa; settings: 1000 g ai/ha, scale 0 to 100 (0 no effect, 100 complete control)
# Summary of the method: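 Visual ratings, 0 (no effect) to 100 (complete control), made versus controls after 13–15 d greenhouse. Paddy plants treated at 2-leaf stage; postemergence plants at 1- to 4-leaf stage, 2–18 cm tall.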
# [11] = system: cocklebur; test: Test B pre-/postemergence herbicide test; type: in vivo, Xanthium strumarium
# Summary of the method: as §4
# [12] = system: ducksalad; test: Test B flooded paddy test; type: in vivo, Heteranthera limosa; settings: 1000 g ai/ha, scale 0 to 100 (0 no effect, 100 complete control)
# Summary of the method: as §3
# [13] = system: barnyardgrass; test: Test B flooded paddy test; type: in vivo, Echinochloa crus-galli; settings: 1000 g ai/ha, scale 0 to 100 (0 no effect, 100 complete control)
# Summary of the method: as §3
# [14] = system: wheat; test: Test B postemergence herbicide test; type: in vivo, Triticum aestivum; parameters: key to Wheat plant response rating: 0 = no effect, 100 = complete control
# Summary of the method: as §2
# [15] = system: large crabgrass; test: Test B pre-/postemergence herbicide test; type: in vivo, Digitaria sanguinalis
# Summary of the method: as §1
# [16] = Postemergence, 500 g ai/ha, visual rating after 13 to 15 days, scale 0 (no effect) to 100 (complete control)
# [17] = Preemergence, 500 g ai/ha, scale 0 to 100
# [18] = postemergence, 125 g ai/ha, visual rating, scale 0 (no effect) to 100 (complete control)
# [19] = preemergence, 125 g ai/ha, 0 to 100 scale, 0 is no effect, 100 is complete control
# [20] = Postemergence, 500 g ai/ha; visual rating after 13 to 15 days, scale 0 (no effect) to 100 (complete control)
# [21] = postemergence, 125 g ai/ha; visual rating, scale 0 (no effect) to 100 (complete control)
# [22] = preemergence, 125 g ai/ha; 0 to 100 scale, 0 is no effect, 100 is complete control
# [23] = 125 g ai/ha, 0 is no effect, 100 is complete control, preemergence
# [24] = 125 g ai/ha, visual rating, scale 0 (no effect) to 100 (complete control), postemergence
# [25] = 500 g ai/ha, visual rating, 0 = no effect, 100 = complete control, preemergence
# [26] = postemergence, 500 g ai/ha, scale 0 to 100, 0 is no effect, 100 is complete control
# [27] = 125 g ai/ha; 0 is no effect, 100 is complete control; preemergence
# [28] = 125 g ai/ha; visual rating, scale 0 (no effect) to 100 (complete control); postemergence
# [29] = 500 g ai/ha; visual rating, 0 = no effect, 100 = complete control; preemergence
# [30] = postemergence, 500 g ai/ha; scale 0 to 100, 0 is no effect, 100 is complete control
structure (smiles),measurement,setting,value
CCn1nc(C(C)(C)C)cc1C(=O)Nc1cccc(C(=O)OC)c1 [Compound 81],"Plant response rating, Foxtail, Giant",[1]; [16],50
same,"Foxtail, Giant plant response rating",[1]; [17],60
same,"Foxtail, Giant plant response rating",[1]; [18],20
same,"Plant response rating, Foxtail, Giant",[1]; [19],10
same,"Plant response rating, Surinam Grass",[2]; [20],60
same,Surinam Grass plant response rating,[2]; [21],40
same,"Plant response rating, Surinam Grass",[2]; [22],0
same,"Plant response rating, Oat, Wild",[3]; [20],30
same,"Oat, Wild plant response rating",[3]; [21],20
same,"Plant response rating, Pigweed",[4]; [20],90
same,Pigweed plant response rating,[4]; [21],50
same,"Plant response rating, Pigweed",[4]; [22],20
same,"Plant response rating, Lambsquarters",[5]; [20],50
same,Lambsquarters plant response rating,[5]; [21],0
same,"Plant response rating, Lambsquarters",[5]; [22],0
same,"Sedge, Umbrella plant response rating","[6]; visual rating, 13 to 15 days",80
same,"Plant response rating, Barnyardgrass",[7]; [16],90
same,Barnyardgrass plant response rating,[7]; [17],60
same,Barnyardgrass plant response rating,[7]; [18],70
same,"Plant response rating, Barnyardgrass",[7]; [19],10
same,"Plant response rating, Morningglory",[8]; [20],30
same,Morningglory plant response rating,[8]; [21],0
same,"Plant response rating, Morningglory",[8]; [22],10
same,"Plant response rating, Velvetleaf",[9]; [20],90
same,Velvetleaf plant response rating,[9]; [21],80
same,"Plant response rating, Velvetleaf",[9]; [22],0
same,Rice plant response rating,"[10]; visual rating, 13 to 15 days",60
same,"Plant response rating, Cocklebur",[11]; [16],90
same,Cocklebur plant response rating,[11]; [17],0
same,Cocklebur plant response rating,[11]; [18],70
same,"Plant response rating, Cocklebur",[11]; [19],0
same,Ducksalad plant response rating,"[12]; visual rating, 13 to 15 days",80
same,Barnyardgrass plant response rating,"[13]; visual rating, 13 to 15 days",50
same,"Plant response rating, Wheat",[14]; [20],40
same,Wheat plant response rating,[14]; [21],20
same,"Plant response rating, Crabgrass, Large",[15]; [16],20
same,"Crabgrass, Large plant response rating",[15]; [17],10
same,"Crabgrass, Large plant response rating",[15]; [18],10
same,"Plant response rating, Crabgrass, Large",[15]; [19],0
CCC1=NN(C(C)(C)C)CC1C(=O)Nc1cc(C(=O)N2CC=CC2)ccc1F (racemic) [Compound 340],"Plant response rating (0 to 100 scale), Foxtail, Giant",[1]; [23],60
same,"Foxtail, Giant plant response rating",[1]; [24],20
same,"Plant response rating, Foxtail, Giant",[1]; [25],100
same,"Foxtail, Giant plant response rating",[1]; [26],40
same,"Plant response rating (0 to 100 scale), Surinam Grass",[2]; [27],80
same,Surinam Grass plant response rating,[2]; [28],10
same,"Plant response rating, Surinam Grass",[2]; [29],100
same,Surinam Grass plant response rating,[2]; [30],20
same,"Oat, Wild plant response rating",[3]; [28],20
same,"Oat, Wild plant response rating",[3]; [30],30
same,"Plant response rating (0 to 100 scale), Pigweed",[4]; [27],100
same,Pigweed plant response rating,[4]; [28],50
same,"Plant response rating, Pigweed",[4]; [29],100
same,Pigweed plant response rating,[4]; [30],80
same,"Plant response rating (0 to 100 scale), Lambsquarters",[5]; [27],90
same,Lambsquarters plant response rating,[5]; [28],30
same,"Plant response rating, Lambsquarters",[5]; [29],100
same,Lambsquarters plant response rating,[5]; [30],70
same,"Sedge, Umbrella plant response rating",[6],80
same,"Plant response rating (0 to 100 scale), Barnyardgrass",[7]; [23],80
same,Barnyardgrass plant response rating,[7]; [24],10
same,"Plant response rating, Barnyardgrass",[7]; [25],100
same,Barnyardgrass plant response rating,[7]; [26],20
same,"Plant response rating (0 to 100 scale), Morningglory",[8]; [27],30
same,Morningglory plant response rating,[8]; [28],10
same,Morningglory plant response rating,[8]; [30],40
same,"Plant response rating (0 to 100 scale), Velvetleaf",[9]; [27],70
same,Velvetleaf plant response rating,[9]; [28],20
same,Velvetleaf plant response rating,[9]; [30],40
same,Rice plant response rating,[10],80
same,"Plant response rating (0 to 100 scale), Cocklebur",[11]; [23],20
same,Cocklebur plant response rating,[11]; [24],0
same,"Plant response rating, Cocklebur",[11]; [25],50
same,Cocklebur plant response rating,[11]; [26],20
same,Ducksalad plant response rating,[12],90
same,Barnyardgrass plant response rating,[13],90
same,Wheat plant response rating,[14]; [28],0
same,Wheat plant response rating,[14]; [30],10
same,"Plant response rating (0 to 100 scale), Crabgrass, Large",[15]; [23],80
same,"Crabgrass, Large plant response rating",[15]; [24],10
same,"Plant response rating, Crabgrass, Large",[15]; [25],100
same,"Crabgrass, Large plant response rating",[15]; [26],20

# Source: patent publication US20060069132A1, “Azolecarboxamide herbicides” (priority 2004, published 2006)
